Source: patent US8198322B2, “Apoptotic and anti-tumor activities of metallo-salens” (Board of Regents, The University of Texas System, priority 2008, dated 2012)
“And” between values parts separate entries of the source, which are not always exact repeats. Identical values can stand only once. Like-named read-outs stand apart in the source and are kept apart here.

Tests used:
[1] = test system: MCF-7 cells; assay: Cytotoxicity assay (IC50 measurement, MTT); format: cell-based, human; settings: MCF-7, 96 hrs
Method: Cytotoxicity assay (IC50 measurement): The cytotoxicity of Fe(III)-salen and its derivatives was determined by using MTT assay as described previously^42. In brief, approximately 10,000 MCF-7 cells were seeded into each well of a 96 well micro titer plate and incubated 24 hrs in presence of 150 μL DMEM. An additional 50 μL DMEM containing required amount of each metallo-salen to obtain 0.05 to 60 μM final concentration (in 200 μL final volume) in 8 replicate wells were added. Control wells were treated with equivalent amount of DMSO. After 96 hrs of incubation, 20 μL of MTT (5 mg/mL) was added into each well and cell viability was assayed by measuring the formazan absorption at 560 nm as described above. The absorbance (at 560 nm) values were plotted against concentration of metallo-salens to determine the IC50. The studies were repeated twice with 8 replicates each time.
The concentration of the metal-complexes at which the conversion of MTT to formazan by viable cells is reduced by 50% compared to control cells is defined as the IC50. The percent of cell survival relative to the control cells were plotted as a function of concentration of the metallo-salen derivatives.

[2] = test system: MCF-7 cells; assay: Cell viability assay (MTT, DIC microscopy) at 20 μM; format: cell-based, human; design: key to Summary of cell viability activities (active/inactive): Y and N indicates active and inactive compounds respectively; Y and N indicates active and inactive compounds respectively; settings: for Summary of cell viability activities (active/inactive): MCF-7 cells, 20 μM, 24-96 hrs, MTT; for effect on cell viability (in words): up to 96 hrs
Method: (A-F): MCF-7 cells were treated with 20 μM metallo-salens and incubated for varying time periods (24-96 hrs). Viable cells were quantified using MTT assay. The percent viable cells (relative to control, treated with equivalent amount of DMSO) were plotted as a function of time for each compound. This experiment was repeated twice with 8 replicate treatments each time. Bars indicates standard errors of mean (SEM). Curves 1-42 in FIGS. 2A-2F, represent the viability curves for compounds 1-42 respectively. (A′-F′) DIC images of the corresponding MCF-7 cells that were treated with DMSO (control panel), or with 20 μM Mn(III)- and Fe(III)-salen complexes for 72 hrs showing the visual effects on cellular morphology and growth/death.
Cell viability assay: Approximately 10,000 MCF-7 cells were seeded into each well of a 96 well micro titer plate and incubated 24 hrs in presence of 150 μL DMEM. An additional 50 μL DMEM containing required amount of each metallo-salen to obtain 20 μM final concentrations (in 200 μL final volume) in 8 replicate wells were added. Control wells were treated with equivalent amount of dimethylsulfoxide (DMSO). The viability of the cells was assayed at 24, 48, 72 and 96 hrs post treatment by using both microscopic observation and MTT assay. For microscopic observation cells were stained with trypan blue for at least 10 minute and observed under Differential Interference Contrast (DIC) setting of a fluorescence microscope (Nikon Eclipse TE2000-U, Japan). The MTT assay was performed as described previously^42. In brief, 20 μL MTT (5 mg/ml in PBS) was added into each wells and incubated for 2 hrs under normal growth condition to allow the viable cell to convert MTT to formazan. Then the media was discarded and formazan crystals were dissolved by adding 100 μL of DMSO and incubating 2 hrs with continuous shaking. The absorbance of the lysates were directly measured at 560 nm using a micro plate reader (Fluostar-omega, BMG Labtech). The absorbance values (which are proportional to the viable cell) are plotted as a function of time. The studies were repeated twice with 8 replicates each time.
The inventors studied the effect of Mn(III)-salen and Fe(III)-salen derivatives on the cell viability of cultured breast cancer cells MCF-7 in order to investigate the biochemical effects of the derivatives. The cells were incubated alone or with 20 μM of each of the metallo-salen derivatives separately (compounds 1-45) for varying time periods (0-96 hrs). The viable cells were quantified using MTT assay and the percent of cell survived (relative to the control untreated cells) were plotted against time (FIGS. 2A-2F).

[3] = Animal toxicity; format: in vivo; settings: C57B mice, intraperitoneal, 5, 10 and 20 mg/kg, twice a week for 4 weeks
Method: The inventors intraperitoneally administered the Mn(III)-salen complexes (in PBS) at three different dozes (5, 10 and 20 mg/kg of mice, 6 weeks old normal C57B mice). The mice were treated twice a week for 4 weeks. After treatment, sign of toxicity were monitored (such as weight loss, mobility), animal behavior and health on a daily basis.

[4] = test system: colon cancer xenograft (CCL228 cells); assay: Colon cancer xenograft experiment; format: in vivo; settings: Athymic nude nu/nu mice, intraperitoneal, 10 mg/kg, twice a week
Method: Athymic nude nu/nu mice carrying the colon cancer xenograft were administered with 10 mg/kg of 3,3′-dimethoxy Mn(III)-salen (compound 6), 3,3′-dihydroxy Mn(III)-salphen (compound 9) and 3,3′-dihydroxy Mn(III)-salnaphen (compound 16) at 4 days interval, for over a period of 21 days. Tumor diameters were measured using a slide caliper prior to each administration and plotted (left panel). Bar indicated standard deviation (3 replicate experiments).
All the animal experiments were carried out using the IACUC approved protocol. For examining the efficacies of metallo-salen complexes, the inventors administered selected metallo-salen complexes in PBS intraperitoneally on Athymic nude nu/nu mice (Harlan) carrying the colon cancer xenografts. In brief, 2×10^6 human colon cancer cells (CCL228 cell in 100 μl of PBS) were injected subcutaneously (near the right back limb). Animals were examined daily for signs of tumor growth and behavior. Once the tumor size reached ˜25 mm^2 (2 to 3 weeks after injection of cells) the inventors administered the metallo-salen complexes intraperitoneally (in PBS solution, twice in a week, in three parallel replicates). Control mice were injected with equal volume of the diluents (PBS) alone. Prior to every new treatment with metallo-salen complexes, bi-dimensional measurements were carried out using calipers and cross-sectional area (tumor size) and data were plotted (FIG. 8A).
Xenograft experiment: To test the efficacy in controlling the tumor growth, the inventors administered compound compounds, 6, 9 and 16, intraperitoneally to six week old Athymic nude nu/nu mice carrying the colon cancer xenograft. In brief, 2×10^6 human colon cancer cells (CCL228 cell in 100 μl of PBS) were injected subcutaneously (near the right back limb). Animals were examined daily for signs of tumor growth and behavior. Once the tumor size reached ˜25 mm^2 (2 to 3 weeks after injection of cells) the inventors administered compounds 6, 9, and 16 intraperitoneally (separately in PBS solution, twice a week, 10 mg/kg dose). Every study was performed in three parallel replicates. […]

[5] = test system: MCF-7 and CCL228 cancer cells over MCF-10 normal breast epithelial cells; assay: IC50 comparison of cancer versus normal cell lines (MTT, FIG. 4); format: cell-based, human; settings: ratio of IC50 values
Method: IC50 values for each biochemically compounds were determined using MTT assay in three different cell lines that include MCF-7 (breast cancer), CCL228 (colon cancer) and MCF-10 (normal breast epithelial cells). IC50 values were for comparison for each compound (compounds 1-45) as marked.
To study the anti-tumor drug potential of Mn(III)- and Fe(III)-metallo salen derivatives, the inventors analyzed IC50 values for the each of the active compounds towards different cancer as well as normal cells. The IC50 values for different active compounds (compounds 1-42) for three different cell lines, MCF-7 (breast cancer), CCL228 (colon cancer) and MCF-10 (non malignant breast cells), are plotted in the bar graph in FIG. 4.

[6] = read-out: IC50 values for different complexes in MCF-7 cells
[7] = read-out: IC50 toward MCF-7 cells

Row | Compound | IC50 [1, 6] | Summary of cell viability activities (active/inactive) [2] | effect on cell viability (in words) ([2]; MCF-7, 20 μM) | other results
1 | CC(=O)[O-].COc1cccc(C=Nc2cc3ccccc3cc2N=Cc2cccc(OC)c2[O-])c1[O-].[Mn+3] [compound 19, 3,3′-Dimethoxysalnaphen Mn(III) acetate] | 39.7 µM | Y (19) |  | 
2 | CC(=O)[O-].COc1ccc(C=Nc2cc3ccccc3cc2N=Cc2ccc(OC)cc2[O-])c([O-])c1.[Mn+3] [compound 20, 4,4′-Dimethoxysalnaphen Mn(III) acetate] | 20.4 µM and 20.5 µM | Y (20) |  | 
3 | CC(=O)[O-].[Mn+3].[O-]c1c(O)cccc1C=Nc1ccccc1N=Cc1cccc(O)c1[O-] [compound 9, 3,3′-Dihydroxysalphen Mn(III) acetate] | 17.3 µM | Y (9) |  | animal toxicity [3]: did not have any significant animal toxicity; survival and body weight [3]: survived without significant loss of body weight; tumor growth in colon cancer xenograft [4]: complete arrest of tumor growth
4 | CC(=O)[O-].[Mn+3].[O-]c1ccccc1C=Nc1ccccc1N=Cc1ccccc1[O-] [compound 8, Mn(III)-salphen acetate] | 15 µM | Y (8) |  | 
5 | COc1ccc(C=NCCN=Cc2ccc(OC)cc2[O-])c([O-])c1.[Cl-].[Fe+3] [compound 27, 4,4′-Dimethoxysalen Fe(III) chloride] | 12.4 µM | Y (27) | highly effective in killing MCF-7 cells | selectivity in killing cancer cells (MCF-7 and CCL228) over normal cells (MCF-10) [5]: about 4 fold; time to induce similar extent (more than 80%) of cell death ([2]; MCF-7, 20 μM): about 72 hrs
6 | CC(=O)[O-].[Mn+3].[O-]c1c(O)cccc1C=Nc1cc2ccccc2cc1N=Cc1cccc(O)c1[O-] [compound 16, 3,3′-Dihydroxysalnaphen Mn(III) acetate] | 40.3 µM | Y (16) |  | animal toxicity [3]: did not have any significant animal toxicity; survival and body weight [3]: survived without significant loss of body weight; tumor growth in colon cancer xenograft [4]: tumor size were grown exponentially
7 | CC(=O)[O-].COc1ccc([O-])c(C=NCCN=Cc2cc(OC)ccc2[O-])c1.[Mn+3] [compound 7, 5,5′-Dimethoxysalen Mn(III) acetate] | 16.1 µM | Y (7) |  | 
8 | [Cl-].[Fe+3].[O-]c1ccccc1C=Nc1cc2ccccc2cc1N=Cc1ccccc1[O-] [compound 36, Fe(III)-salnaphen chloride] |  | Y (36) |  | IC50 [1, 7]: 0.54 µM
9 | COc1ccc([O-])c(C=NCCN=Cc2cc(OC)ccc2[O-])c1.[Cl-].[Fe+3] [compound 28, 5,5′-Dimethoxysalen Fe(III) chloride] | 4.56 µM | Y (28) | highly effective in killing MCF-7 cells | cells killed in less than 24 hrs ([2]; MCF-7, 20 μM, less than 24 hrs): more than 80%
10 | CC(=O)[O-].[Mn+3].[O-]c1ccc(O)cc1C=NCCN=Cc1cc(O)ccc1[O-] [compound 4, 5,5′-Dihydroxysalen Mn(III) acetate] | 43.1 µM | Y (4) | effective in inducing cell death | 
11 | COc1ccc(C=Nc2ccccc2N=Cc2ccc(OC)cc2[O-])c([O-])c1.[Cl-].[Fe+3] [compound 34, 4,4′-Dimethoxysalphen Fe(III) chloride] |  | Y (34) |  | IC50 [1, 7]: 0.68 µM
12 | CC(=O)[O-].[Mn+3].[O-]c1ccc(O)cc1C=Nc1ccccc1N=Cc1cc(O)ccc1[O-] [compound 11, 5,5′-Dihydroxysalphen Mn(III) acetate] | 45.6 µM | Y (11) | effective in inducing cell death | 
13 | 5,5′-Dimethoxysalnaphen Fe(III) chloride [compound 42] | 1.24 µM | Y (42) |  | 
14 | CC(=O)[O-].COc1ccc(C=NCCN=Cc2ccc(OC)cc2[O-])c([O-])c1.[Mn+3] [compound 6, 4,4′-Dimethoxysalen Mn(III) acetate] | 12.3 µM | Y (6) | induced efficient cell death | animal toxicity [3]: did not have any significant animal toxicity; survival and body weight [3]: survived without significant loss of body weight; tumor growth in colon cancer xenograft [4]: complete arrest of tumor growth
15 | CC(=O)[O-].COc1ccc(C=Nc2ccccc2N=Cc2ccc(OC)cc2[O-])c([O-])c1.[Mn+3] [compound 13, 4,4′-Dimethoxysalphen Mn(III) acetate] | 15.5 µM and 15.6 µM | Y (13) | most effective on inducing cell death | 
16 | CC(=O)[O-].COc1ccc([O-])c(C=Nc2ccccc2N=Cc2cc(OC)ccc2[O-])c1.[Mn+3] [compound 14, 5,5′-Dimethoxysalphen Mn(III) acetate] | 55.9 µM | Y (14) |  | 
